Assay results as given in patent publication US8309140B2, “Effect of porcine sheath proteins on the regeneration activity of periodontal ligament” (priority 2005, dated 2012).
“Also recorded” adds a separate entry of the source.

Legend:
HPDL cells = assay: Mineralization activity of HPDL cells (alizarin red S staining, calcium content); type: cell-based, human; settings: for induction of mineralization of HPDL cells (Example 3): 30 days culture, 1 μg/ml of samples, differentiation medium
Experimental: (§1) The HPDL cells were plated in 24-well plates at an initial density of 1×10^5 cells/well. After 24 h of incubation, the medium was replaced with growth medium containing 50 μM ascorbic acid, 10 mM β-glycerophosphate, and 10 nM 1α,25-dihydroxyvitamin D3 (differentiation medium) and 1 μg/ml of samples. The medium was changed every 72 h. The cells were maintained for 30 days and then the medium was discarded.
The compartments of cells were fixed in 100% methanol, stained with alizarin red S for 10 min, then washed with ultrapure water and photographed to examine the biomineralization activity. The staining solution was 1% alizarin red S (sodium alizarin sulfonate) (Sigma) dissolved in ultrapure water and adjusted to pH 6.4 with 0.1N ammonium hydroxide.
For measuring the calcium content, the compartments of cells were dissolved by 0.5N hydrochloric acid. The resulting solution was measured by a Calcium C-test kit and protocol (Wako Pure Chemical Industries Ltd, Osaka, Japan). The absorbance at 570 nm was read on a plate reader.
as §1, with “h and the” for “h. The”, “days. The biomineralization activity was examined by staining with alizarin red S” for “days”, “measuring calcium content.” for “then the medium was discarded.”
The HPDL cells were plated in six-well plates at an initial density of 1×10^5 cells per well. […]
For Alizarin Red S staining, the compartments of 28 d cultured cells were fixed in 100% methanol, stained with Alizarin Red S for 10 min, then washed with ultra-pure water and photographed. […] The resulting solution was measured using a Calcium C-test kit and protocol. The absorbance at 570 nm was read with a plate reader. […]

[1] = tested on: human periodontal ligament (HPDL) cells; assay: ALP inducing activity of HPDL cells on cell culture system; type: cell-based; settings: for ALP activity of HPDL cells (human synthetic peptides, Example 3): peptides around 1 ng/ml, TGF-β1 10 ng/ml; for ALP inducing activity of HPDL cells (Example 4): peptides 50 μg/mL, TGF-β1 1 ng/mL, BMP-2 1 μg/mL; for ALP inducing activity of HPDL cells (Example 4) / ALP activity of HPDL cells (porcine sheath proteins and synthetic peptides): 96 h; for ALP activity of HPDL cells (porcine sheath proteins and synthetic peptides): 50 μg/ml protein or peptide, TGF-β1 50 ng/ml, BMP-2 500 ng/ml, 10 nM 1α-25dihydroxy-Vitamin D3
Text: (§2) Human periodontal ligament (HPDL) cells were obtained according to the method of Somerman et al., (1988) from healthy premolars which were extracted from the patients for orthodontic reasons. The cells were precultured for 4-6 passages with a-MEM medium to establish the primary cell line. The cells were maintained in the alpha modification of Eagle's medium (α-MEM; Life Technologies, Grand Island, N.Y., USA) containing 10% fetal bovine serum (FBS; Asahi Technoglass, Chiba, Japan) and 1% antibiotics (100 U/ml of Penicillin-G and 100 μg/ml of Streptomycin sulfate; Gibco BRL, Grand Island, N.Y., USA) at 37° C. in a humidified 5% CO2 atmosphere. The ST2 cells (Riken Cell Bank, Tsukuba, Japan), an osteoblast-like mouse bone marrow stromal cell line, were cultured under the same conditions.
HPDL cells were distributed in 96-well plates at a density of approximately 5×10^5 cells per a well and incubated for 24 h. The growth medium was then changed to contain 10 nM of 1α-25dihydroxy-Vitamin D3 (CALBIOCHEM, La Jolla, Calif.) and 50 μg/ml (final concentration) of fractionated enamel protein samples or synthesized peptides dissolved in ultrapure water. After 96 additional hours of incubation, the cells were washed once with PBS, and ALP activity was determined after a 10 min incubation at 37° C. in 10 mM p-nitrophenylphosphate (substrate) in 100 mM 2-amino-2-methyl-1,3-propanediol-HCl buffer (pH 10.0) containing 5 mM MgCl2. After adding 0.2 M NaOH, which stopped the reaction, the absorbance at 405 nm was read on a plate reader.
HPDL cells of approximately 5×10^5 cells per well were distributed in 96-well plates and incubated for 24 h. The growth medium was then changed to contain 10 nM of 1α-25dihydroxy-Vitamin D3 and 50 μg/ml (final concentration) of purified sheath protein or synthesized peptide. After 96 additional hours of incubation, ALP activity was determined using p-nitrophenylphosphate as a substrate.
The bioactivities of these synthetic peptides were tested their cytodifferentiation activity of HPDL cells and ST2 cells by determination of increasing ALP inducing activity on cell culture system. When these peptides applied in cell culture system, the concentration of their peptides was employed around 1 ng/ml. In the case of TGF-1, the concentration was 10 ng/ml.
Normal human periodontal ligament fibroblasts were maintained in an α-minimal essential medium (α-MEM) containing 10% fetal bovine serum, either with or without 10 nM 1α-25dihydroxy-vitamin D3 and 1% antibiotics (100 U/mL of penicillin G and 100 μg/mL of streptomycin sulfate) at 37° C. in a humidified atmosphere of air containing 5% CO2. Another cell line, ST2 cells, was obtained from an osteoblast-like mouse bone marrow stromal cell line. These cells were cultured in the same conditions as those described above.
The ALP inducing activities of synthetic peptides using the cell culture of HPDL cells and ST2 cells were examined. The HPDL cells were distributed in 96-well plates at a density of approximately 5×10^5 cells per well and incubated for 24 h. The medium was then changed to α-MEM containing 10 nM of 1α-25dihydroxy-vitamin D3 and either synthetic peptides or growth factors dissolved in ultra-pure water. After 96 h of incubation, the cells were washed once with phosphate-buffered saline, and 10 mM ρ-nitrophenylphosphate in 100 mM 2-amino-2-methel-1,3-propanediol-HCl buffer (pH 10.0) containing 5 mM MgCl2 was added. The ALP activity was determined after 10 min incubation at 37° C. and the absorbance at 405 nm was read using a plate reader, after adding 0.2 M NaOH to stop the reaction. […] When the synthetic peptides were applied in the cell culture system, their final concentrations were 25 or 50 μg/mL. A TGF-β1 receptor inhibitor (SB431542, 10 μM) was applied to the HPDL cell culture system to examine their influence relative to the ALP inducing activity of the synthetic peptides.

[2] = tested on: human periodontal ligament (HPDL) cells; settings: cited from earlier work
[3] = tested on: osteopontin, osteocalcin and bone sialoprotein expression in HPDL cells; assay: Semi-quantitative PCR of mineralized tissue markers in cultured HPDL cells; type: cell-based, human; settings: 4, 14 and 28 d cultured HPDL cells; H-2 25 μg/mL; TGF-β1 1 ng/mL
Text: Total RNA was extracted using RNAzol™ B from cultured HPDL cells. […] The PCR primers were designed based upon the Homo sapiens mRNA sequences. The primer pairs were as follows: osteopontin, 5′-[…]-3′ (SEQ ID NO: 45) and 5′-[…] TGAA-3′ (SEQ ID NO: 46) (301 bp); osteocalcin, 5′-[…]-3′ (SEQ ID NO: 47) and 5′-[…] GAGGT-3′ (SEQ ID NO: 48) (304 bp); and bone sialo protein, 5′-[…]-3′ (SEQ ID NO: 49) and 5′-[…]-3′ (SEQ ID NO: 50) (448 bp). A primer set amplifying glyceraldehyde-3phosphate dehydrogenase mRNA was used as a control.
The cDNAs generated from HPDL cells […] the DNA Master SYBR Green I kit and protocol and a LightCycler instrument. The relative amount of each mRNA was determined at 50% levels of PCR product, and normalized with use of the relative amount of GAPDH mRNA.

ST2 cells = assay: ALP inducing activity of ST2 cells on cell culture system; type: cell-based, mouse; settings: 50 μg/ml protein or peptide; TGF-β1 50 ng/ml, BMP-2 500 ng/ml
Text: as §2
HPDL cells of approximately 5×10^5 cells per well were distributed in 96-well plates and incubated for 24 h. […] After 96 additional hours of incubation, ALP activity was determined using p-nitrophenylphosphate as a substrate. […]
The ALP inducing activities of synthetic peptides using the cell culture of HPDL cells and ST2 cells were examined. […] The ALP activity was determined after 10 min incubation at 37° C. and the absorbance at 405 nm was read using a plate reader, after adding 0.2 M NaOH to stop the reaction. […]

[4] = tested on: buccal dehiscence type bone defects created along the roots of the canine mandibular premolars; assay: Cementum regeneration (CR) activity, eight-week histological analysis on buccal dehiscence model of dogs; type: in vivo, beagle dogs; settings: histological analysis eight weeks after application; buccal dehiscence model of dogs
Experimental: Approximately 2-year-old male beagle dogs (approximate 15 kg) were used to detect the CR activities after the applications of several enamel protein samples. They had intact dentition and a healthy periodontium. The surgical preparation of buccal dehiscence type bone defects was carried out according to the modified method of Hammarström (1997) under general anesthesia induced and maintained by an endotracheal tube with 1.5-2.0% of halothane (Takeda Yakuhin Co. LTD, Osaka, Japan) in 100% oxygen, after premedicated with intramuscular injection of the mixture of Ketamine HCl (9.8 mg/kg: Sankyo Co. LTD, Tokyo, Japan) and Xylazine HCl (0.7 mg/kg: Bayer Co. LTD, Tokyo, Japan).
Contralateral buccal mucoperiosteal flaps were raised after an intracrevicular incision extending from the first mandibular premolar to the first mandibular molar. After the removing the buccal alveolar bone plate covering the mesial root of the second premolars, the exposed periodontal ligament and cementum of these areas were completely removed by means of a dental bur. At the apical end of the defect, a notch was created to identify the apical extension of the defect, when histological analyses. The distance between the cervical margin and the apical end of the defect was standardized at about 5 mm. The exposed root dentin surfaces were conditioned for 2 min with cotton pellets soaked in a 19% EDTA solution, and then carefully rinsed with sterile saline. Then 50 μg of each enamel protein sample in 100 μl of cold sterile distilled water was applied over the entire buccal surface area of the exposed roots. Finally, the mucoperiosteal flaps were repositioned to their level prior to surgery and sutured. Distilled water was used as a negative control and EMDOGAIN® (BIORA AB, Malmö, Sweden) served as a positive control.
After 8 weeks the dogs were terminated by anesthetization with sodium pentobarbital. Their heads were fixed by perfusion with 0.1 M sodium cacodylate buffer (pH 7.4) containing 4% paraformaldehyde and 1% glutaraldehyde. Tissue blocks, which included teeth, bone, and tissue were dissected and demineralized in 10% formic acid containing 0.06 M sodium citrate and 0.1 M citric acid. All specimens were dehydrated using a graded series of alcohols and then embedded in paraffin. Serial sections (5 μm thick) were made and stained with hematoxylin/eosin for examination by light microscopy.
The length and thickness of cementums regenerated after application of fractionated and purified enamel protein samples and EMD were measured on the computer monitor of histological results. The length of the regenerated cementum was straight distance between the apical end of the defect and coronal extention of the new cementum, as well as to the crest of the new alveolar bone. Also, the thickness of cementum was measured at coronal end, apical end and between them.
CR promoting activity of enamel proteins obtained at each extracted and purified step were examined by eight-week histological analysis of buccal dehiscence type bone defects created along the roots of canine mandible (FIG. 1).

[5] = 10 nM 1α-25dihydroxy-vitamin D3

Molecule	induction of mineralization of HPDL cells (Example 3) (HPDL cells)	ALP activity of HPDL cells (human synthetic peptides, Example 3) [1]	ALP inducing activity of HPDL cells (Example 4) [1, 5]	CR (cementum regeneration) activity [4]	ALP activity of HPDL cells (porcine sheath proteins and synthetic peptides) [1]	further results
FADPQGPSLPGMDF (14 aa from 157 to 170 in sequence 11; listed as Homo sapiens) [H-3]	enhanced the induction of mineralization	enhanced dose dependently				
QVEGPMVQQQVAPSEK (16 aa from 131 to 146 in sequence 10; listed as Sus scrofa) [P-1]						ALP inducing activity among porcine ESP synthetic peptides (previous study) [2]: highest ALP inducing activity among all the porcine ESP synthetic peptides tested
SDKPPKPELPGVDF (14 aa from 144 to 157 in sequence 11; listed as Homo sapiens) [H-2]	enhanced the induction of mineralization	enhanced dose dependently	highest ALP inducing activity			mineralization by HPDL cells (Example 4) (HPDL cells; 28 d cell culture, H-2 25 μg/mL, TGF-β1 1 ng/mL): induced mineralization; expressions of osteopontin, osteocalcin and bone sialoprotein [3]: closely similar to those of TGF-β1
TGF-β1: recombinant growth factor, positive control [reference compound]			enhanced in a dose-dependent manner; also recorded: increased	shown to have the same activity	further increased	ALP activity of ST2 cells (porcine sheath proteins and synthetic peptides) (ST2 cells): not stimulated; ALP inducing activity of HPDL cells when adding TGF-β1 receptor inhibitor SB431542 ([1]; 10 μM SB431542, 10 nM 1α-25dihydroxy-vitamin D3): inhibited distinctly; concentration for increasing ALP inducing activity of HPDL cells, molar ([1]; calculated from molecular weight (TGF-β1 25 kDa; peptides average 1.5 kDa)): 0.4 nM/liter; apt concentration for increasing ALP inducing activity of HPDL cells ([1]; cell culture system): around 10 ng/ml
13 kDa sheath protein: sheath protein containing the 99 amino acids extending from M32 to Q130 (protein) MLSQYSRFGFGKSFNSLWMHGLLPPHSSFQWMRPREHETQQYEYSLPVHPPPLPSQPSLQPQQPGQKPFLQPTVVTSIQNPVQKGVPQPPIYQGHPPLQ				do not exhibit any cementum regeneration activity	not	
